# Data: patent US20120134979A1, “METHODS AND COMPOSITIONS FOR THE TREATMENT OF SICKLE CELL DISEASE” (priority 2010, published 2012)
# Assays:
# normal mouse RBCs = assay: 2,3-DPG levels in isolated mouse RBCs treated in vitro; assay type: cell-based; settings: for NECA-mediated 2,3-DPG induction (effect of inhibitor): normal mouse RBCs
# Method: (§1) Isolation of total erythrocytes and treatment of human and mouse erythrocytes in vitro. Blood collected with heparin as an anti-coagulant was centrifuged at 240×g for 10 min at room temperature, followed by aspiration of plasma and white interface. Packed red blood cells (RBCs) were washed 3 times with culture media (F-10 Ham's with 1% penicillin/streptomycin, 10% fetal bovine serum (FBS), and re-suspended to 4% hematocrit (HCT). One ml of RBCs was added to each well of a 12-well plate. Normal RBCs purified from humans were treated with different concentrations of 5′-(N-ethyl-carboxamido) adenosine (NECA, an adenosine receptor agonist, Sigma-Aldrich, St. Louis, Mo.) ranging from 1-50 μM for different time points (from 1 to 18 hr) under normoxic conditions. Normal RBCs were treated with 10 μM NECA in the presence or absence of adenosine receptor antagonists, including theophylline, PSB36, SCH442416, MRS1754 and MRS3777 (Tocris Bioscience, St. Louis, Mo.) at 10 μM. In addition, normal RBCs were treated directly with the A2BR agonist (BAY 60-6583, Bayer HealthCare AG, Wuppertal, Germany) or the A2AR agonist (CGS21680) (Tocris). Similarly, the mouse RBCs were treated with or without NECA at 10 μM in the presence or absence of theophylline (10 μM). In addition, RBCs purified from 4 adenosine receptor deficient mice were treated with 10 μM NECA. After 18 hours, cells were collected and 2,3-DPG levels were measured as described below. RBCs were purified from SCD patients and treated with or without 10 μM NECA, 5 units/ml polyethylene glycol-adenosine deaminase (PEG-ADA) or 3 mmol/L glycolic acid (Sigma-Aldrich), 10 μM MRS1754 (A2BR antagonist) under ambient oxygen (normoxia) or different levels of hypoxic conditions (for 3 hours with shaking at 37° C. At the end of experiments, 2,3-DPG levels were measured and the percentage of sickled cells determined as described below.
# (§2) 2,3-DPG analysis. 2,3-DPG concentration in RBCs was detected by a commercially available kit (Roche, Nutley, N.J., and as described in Ericson A, de Verdier C H. A modified method for the determination of 2,3-diphosphoglycerate in erythrocytes. Scandinavian journal of clinical and laboratory investigation. 1972; 29(1):84-90).
# normal human RBCs = assay: 2,3-DPG levels in primary cultured normal human RBCs; assay type: cell-based; settings: for NECA-mediated 2,3-DPG induction (effect of antagonist): RBCs from normal individuals, 10 μM NECA, antagonists at 10 μM; for 2,3-DPG levels / production (agonist): primary cultured human RBCs from normal individuals, normoxic
# Method: as §1, §2
# RBCs from SCD patients [1] = assay: Hypoxia-induced 2,3-DPG in erythrocytes purified from SCD patients; assay type: cell-based, human; settings: hypoxic conditions (2% oxygen)
# Method: as §1, §2
# RBCs from SCD patients [2] = assay: Hypoxia-induced sickling of RBCs from SCD patients; assay type: cell-based, human; settings: RBCs from individuals with SCD, hypoxic conditions
# Method: as §1
# (§3) Morphological study of erythrocytes and quantification of reticulocytes by flow cytometry. Blood smears were stained using the WG16-500 ml kit (Sigma-Aldrich) for sickled cells and observed using 100× oil immersion objective of Olympus BX60 microscope. […] The percentages of sickled cells among the counted cells were calculated. Reticulocyte was labeled by Retic-COUNT Reagent (Becton Dickinson) and quantified by flow cytometry (Perumbeti, et al., A novel human gamma-globin gene vector for genetic correction of sickle cell anemia in a humanized sickle mouse model: critical determinants for successful correction. Blood. 2009; 114(6):1174-1185).
# SCD Tg mice [3] = assay: Organ weight, histology and heme content in SCD Tg mice after chronic treatment; assay type: in vivo, mouse; settings: 8 weeks treatment, lung, liver, spleen (PSB1115 also kidney)
# Method: (§4) Chronic PEG-ADA therapy. SCD transgenic mice, at eight weeks of age, were divided to two groups. One group was injected with 2.5 U PEG-ADA weekly for 8 weeks. This dosing protocol was designated SCD with PEG-ADA treatment regimen (SCD+PEG-ADA). Another group was injected with normal saline for 8 weeks; it was designated as SCD without PEG-ADA treatment regimen (SCD). Wild-type mice (C57Bl/6) used as control were injected with saline or PEG-ADA as with the SCD groups.
# (§5) Chronic treatment with A2BR antagonist, PSB1115. SCD transgenic mice or wild type mice (eight weeks of age) were divided to two groups, one groups was injected with 200 μg of PSB1115 (an A2B receptor antagonist: obtained from Tocris Bioscience, St. Louis, Mo.) in PBS, daily for 8 weeks. One of groups was injected with saline.
# Mouse organ isolation and histological analysis. Mice were anesthetized and body weight was determined. Organs were isolated and weighed. Half of each organ was quickly frozen in liquid nitrogen and then stored at −80° C. for heme content measurements as described below. The remaining half of each organ was fixed with 4% paraformaldehyde in PBS overnight at 4° C. Fixed tissues were rinsed in PBS, dehydrated through graded ethanol washes, and embedded in paraffin. 5 μm sections were collected on slides and stained with haematoxylin and eosin (H&E). Semiquantification of histological changes was analyzed by Image-Plus, Pro software.
# Heme content measurement in multiple mouse tissues. Different organs were quickly removed and frozen in liquid nitrogen as described above. Heme was extracted from organs by homogenization with 1% Triton x-100 in PBS with 1× proteinase inhibitors (Roche) and the supernatant was collected following centrifugation at 20,000 g for 10 minutes at 4° C. Heme content was quantified following the instructions of QuantiChrom Heme Assay Kit (BioAssay Systems, Hayword, Calif.).
# SCD Tg mice [4] = assay: Life span of RBCs in SCD Tg mice (in vivo biotin labelling); set-up: species or system mouse
# Method: Measurement of life span of RBCs in SCD Tg mice. SCD Tg mice were treated with or without PEG ? ADA (2.5 unit/week) for 8 weeks. At 6 week-treatment, RBCs were labeled in vivo by using N-hydroxysuccinimide (NHS) biotin and the life span of circulating red blood cells was measured as described (Perumbeti, et al. A novel human gamma-globin gene vector for genetic correction of sickle cell anemia in a humanized sickle mouse model: critical determinants for successful correction. Blood. 2009; 114(6):1174-1185).
# Specifically, 50 mg/kg of NHS biotin was injected into the retro-orbital plexus of SCD Tg mice (prepared in 100 μl sterile saline just prior to injection; initially dissolved at 50 mg/ml in N,—N,-dimethylacetamide) Blood samples (only 5 μl) were collected after first day of biotin-injection from tail vein by venipuncture to determine the percentage of RBCs labeled with biotin. Subsequently, 5 μl of blood were obtained by tail vein every 3 days for measurement of biotinylated RBCs until the 10th day. The percentage of biotinylated RBCs was calculated by determining the fraction of peripheral blood cells labeled with Ter-119 (to identify RBCs) that were also labeled with a streptavidin-conjugated fluorochrome by flow cytometry.
# SCD Tg mice [5] = assay: 2,3-DPG in RBCs and saturated Hb in SCD Tg mice after chronic treatment; assay type: in vivo, mouse; settings: steady state, 8 weeks treatment
# Method: as §4, §5, §2
# Measurement of percentage of saturated Hb in mice. Percentage of saturated Hb (SpO2) in mice was measured by Oxysat (Kent Scientific Corp, CT). Mice were held in mouse holders (Kent Scientific Corp, CT) and Oxysat sensor was placed on a site approximately 1 cm from the base of the tail. When mouse was calm, the SpO2 was continuously recorded for about 2 minutes. The data were collected and SpO2 was calculated by average of SpO2 in two-minute measurement.
# SCD Tg mice [6] = assay: Hematological parameters of SCD Tg mice treated with PEG-ADA or PSB1115 for 8 weeks; assay type: in vivo, mouse; settings: 8 weeks treatment
# Description: Mice. Berkley sickle cell disease transgenic mice (SCD Tg mice), expressing exclusively human sickle hemoglobin (HbS) were purchased from The Jackson Laboratory Inc (Paszty, C. Transgenic and gene knock-out mouse models of sickle cell anemia and the thalassemias. Curr Opin Hematol 4, 88-93, 1997). C57BL/6 mice used as controls were purchased from Harlan Laboratories. Adenosine receptor deficient mice were obtained from the following sources: A1R-deficient mice (Jurgen Schnermann, NIDDK, NIH); A2AR-deficient mice (Jiang-Fan Chen, Boston University School of Medicine); A2BR-deficient mice (Michael R. Blackburn, University of Texas-Houston Medical School); and A3R-deficient mice (Marlene Jacobson, Merck Research Laboratories). All receptor deficient mice were backcrossed at least 10 generations onto the C57Blk/6J background and were genotyped according to established protocols (Sun, D., et al. Mediation of tubuloglomerular feedback by adenosine: evidence from mice lacking adenosine receptors. Proc Natl Acad Sci USA 98, 9983-9988, 2001; Nemeth, Z. H., et al. Adenosine receptor activation ameliorates type 1 diabetes. FASEB J, 2007; Chen, J. F., et al. A2A adenosine receptor deficiency attenuates brain injury induced by transient focal ischemia in mice. J Neurosci 19, 9192-9200, 1999; Salvatore, C. A., et al. Disruption of the A3 adenosine receptor gene in mice and its effect on stimulated inflammatory cells. The Journal of Biological Chemistry 275, 4429-4434, 2000). Animals were maintained in accordance with institutional and NIH guidelines under research protocols that were reviewed and approved by the University of Texas Health Science Center at Houston Animal Welfare Committee.
# as §4, §5, §3
# mouse RBCs = assay: cAMP levels in isolated mouse RBCs; assay type: cell-based
# Method: Isolation of total erythrocytes and treatment of human and mouse erythrocytes in vitro. Blood collected with heparin as an anti-coagulant was centrifuged at 240×g for 10 min at room temperature, followed by aspiration of plasma and white interface. […] After 18 hours, cells were collected and 2,3-DPG levels were measured as described below. RBCs were purified from SCD patients and treated with or without 10 μM NECA, 5 units/ml polyethylene glycol-adenosine deaminase (PEG-ADA) or 3 mmol/L glycolic acid (Sigma-Aldrich), 10 μM MRS1754 (A2BR antagonist) under ambient oxygen (normoxia) or different levels of hypoxic conditions (for 3 hours with shaking at 37° C. At the end of experiments, 2,3-DPG levels were measured and the percentage of sickled cells determined as described below.
# cAMP measurement. Quantitative assays for cAMP contents in RBCs were performed by using a commercial enzyme immunoassay kit (Assay Designs Inc., Michigan, USA).
structure (smiles),measurement,setting,value
Cn1c(=O)c2[nH]cnc2n(C)c1=O [theophylline],"NECA-mediated 2,3-DPG induction (effect of inhibitor)",normal mouse RBCs; NECA 10 μM,prevented
same,"NECA-mediated 2,3-DPG induction (effect of antagonist)",normal human RBCs,inhibited
O=S(=O)(NCCNC/C=C/c1ccc(Br)cc1)c1cccc2cnccc12 [H-89],"NECA-mediated 2,3-DPG induction (effect of inhibitor)",normal mouse RBCs; NECA 10 μM,significantly inhibited
same,"hypoxia-mediated induction of 2,3-DPG",RBCs from SCD patients [1],reduced
same,percentage of sickled cells,RBCs from SCD patients [2],significantly reduced
N#Cc1c(N)nc(SCC(N)=O)c(C#N)c1-c1ccc(OCC2CC2)cc1 [BAY 60-6583],"2,3-DPG levels / production (agonist)",normal human RBCs,"induced 2,3-DPG production in a dosage-dependent manner"
"O=C(O)CO [glycolate, glycolic acid]","hypoxia-mediated induction of 2,3-DPG",RBCs from SCD patients [1],reduced
same,percentage of sickled cells,RBCs from SCD patients [2],significantly reduced
CCNC(=O)[C@H]1O[C@@H](n2cnc3c(N)nc(NCCc4ccc(CCC(=O)O)cc4)nc32)[C@H](O)[C@@H]1O [CGS21680],"2,3-DPG levels / production (agonist)",normal human RBCs,not
"CCCn1c(=O)[nH]c2nc(-c3ccc(S(=O)(=O)O)cc3)[nH]c2c1=O [PSB1115, reference compound]","congestion, vascular damage and necrosis in multiple tissues (histology)",SCD Tg mice [3],reduced
same,fold increase of half-life of RBCs,SCD Tg mice [4]; chronic treatment vs untreated,2.75 fold
same,half-life of RBCs,"SCD Tg mice [4]; chronic treatment, untreated 2 days",132 h
same,"2,3-DPG levels in the RBCs",SCD Tg mice [5],decreases
same,HCT,SCD Tg mice [6],31.82 ± 3.43 %
same,Hb,SCD Tg mice [6],8.25 ± 0.29 g/dL
same,MCH,SCD Tg mice [6],12.78 ± 0.46 pg
same,MCHC,SCD Tg mice [6],26.02 ± 1.82 g/dL
same,MCV,SCD Tg mice [6],49.17 ± 1.82 fL
same,RDW,SCD Tg mice [6],28.27 ± 1.36 %
same,Reticulocyte,SCD Tg mice [6],37.15 ± 3.27 %
same,Sickle cell,SCD Tg mice [6],9.07 ± 0.75 %
same,WBC,SCD Tg mice [6],11.95 ± 3.27 k/μl
same,RBC,SCD Tg mice [6]; mean ± SEM,6.45 ± 0.45 M/μl
CCCn1c(=O)c2[nH]c(-c3ccc(OCC(=O)Nc4ccc(C#N)cc4)cc3)nc2n(CCC)c1=O [MRS1754],"hypoxia-mediated induction of 2,3-DPG",RBCs from SCD patients [1],reduced
same,percentage of sickled cells,RBCs from SCD patients [2],significantly reduced
same,"NECA-mediated 2,3-DPG induction (effect of antagonist)",normal human RBCs,inhibited
"CCNC(=O)[C@H]1O[C@@H](n2cnc3c(N)ncnc32)[C@H](O)[C@@H]1O [NECA, 5′-N-ethylcarboxamidoadenosine]",cAMP production,mouse RBCs; RBCs from A2BR-deficient mice,not
same,cAMP production,mouse RBCs; RBCs from WT mice,capable of inducing cAMP production
same,"NECA-mediated 2,3-DPG induction",normal mouse RBCs; RBCs from A2BR-deficient mice,did not occur
same,"2,3-DPG levels","normal mouse RBCs; primary normal mouse mature erythrocytes, NECA 10 μM, 18 hours",stimulated an increase
same,"hypoxia-mediated induction of 2,3-DPG",RBCs from SCD patients [1],significantly stimulated a further increase
same,percentage of sickled cells,RBCs from SCD patients [2],significantly increased
same,"2,3-DPG levels / production (agonist)",normal human RBCs,"stimulated 2,3-DPG levels in a dosage and time-dependent manner"
CCCCn1c(=O)c2[nH]c(C34CC5CC(CC3C5)C4)nc2n(CCCO)c1=O [PSB36],"NECA-mediated 2,3-DPG induction (effect of antagonist)",normal human RBCs,not
COc1ccc(CCCn2ncc3c2nc(N)n2nc(-c4ccco4)nc32)cc1 [SCH442416],"NECA-mediated 2,3-DPG induction (effect of antagonist)",normal human RBCs,not
c1ccc(Oc2nc(NC3CCCCC3)c3[nH]cnc3n2)cc1 [MRS3777],"NECA-mediated 2,3-DPG induction (effect of antagonist)",normal human RBCs,not
